Laboratory results published in ChEMBL document CHEMBL3112408, “1,2,3-triazole-, arylamino- and thio-substituted 1,4-naphthoquinones: potent antitumor activity, electrochemical aspects, and bioisosteric replacement of C-ring-modified lapachones” (Bioorg Med Chem, 2014).

Tested on: not listed separately
Experiment: Cytotoxicity against human Hs578T cells assessed as cell viability after 72 hrs by MTT assay
Format: functional, cell-based
Settings: Hs-578T

SMILES | IC50
O=C1C(Cl)=C(NCc2cn(CCCN3C(=O)c4ccccc4C3=O)nn2)C(=O)c2ccccc21 | > 10 µM
O=C1C(Br)=C(NCc2cn(CN3C(=O)c4ccccc4C3=O)nn2)C(=O)c2ccccc21 | > 10 µM
O=C1C(Br)=C(NCc2cn(CCN3C(=O)c4ccccc4C3=O)nn2)C(=O)c2ccccc21 | > 9 µM
O=C1C(Br)=C(NCc2cn(CCCN3C(=O)c4ccccc4C3=O)nn2)C(=O)c2ccccc21 | > 9 µM
O=C1C=C(NCc2cn(-c3cccc([N+](=O)[O-])c3)nn2)C(=O)c2ccccc21 | > 13 µM

Tested on: MX1
Experiment: Cytotoxicity against human MX1 cells assessed as cell viability after 72 hrs by MTT assay
Format: functional, cell-based
Settings: MX1, 72 h

SMILES | IC50
O=C1C(Cl)=C(NCc2cn(CCCN3C(=O)c4ccccc4C3=O)nn2)C(=O)c2ccccc21 | > 10 µM
O=C1C(Br)=C(NCc2cn(CN3C(=O)c4ccccc4C3=O)nn2)C(=O)c2ccccc21 | > 10 µM
O=C1C(Br)=C(NCc2cn(CCN3C(=O)c4ccccc4C3=O)nn2)C(=O)c2ccccc21 | > 9 µM
O=C1C(Br)=C(NCc2cn(CCCN3C(=O)c4ccccc4C3=O)nn2)C(=O)c2ccccc21 | > 9 µM
O=C1C=C(NCc2cn(-c3cccc([N+](=O)[O-])c3)nn2)C(=O)c2ccccc21 | > 13 µM

Tested on: MDA-MB-435
Experiment: Cytotoxicity against human MDA-MB-435 cells assessed as cell viability after 72 hrs by MTT assay
Format: functional, cell-based
Settings: MDA-MB-435, 72 h

SMILES | IC50
O=C1C(Cl)=C(NCc2cn(CCCN3C(=O)c4ccccc4C3=O)nn2)C(=O)c2ccccc21 | > 10 µM
O=C1C(Br)=C(NCc2cn(CN3C(=O)c4ccccc4C3=O)nn2)C(=O)c2ccccc21 | > 10 µM
O=C1C(Br)=C(NCc2cn(CCN3C(=O)c4ccccc4C3=O)nn2)C(=O)c2ccccc21 | > 9 µM
O=C1C(Br)=C(NCc2cn(CCCN3C(=O)c4ccccc4C3=O)nn2)C(=O)c2ccccc21 | > 9 µM
O=C1C=C(NCc2cn(-c3cccc([N+](=O)[O-])c3)nn2)C(=O)c2ccccc21 | > 13 µM

Tested on: HL-60
Experiment: Cytotoxicity against human HL60 cells assessed as cell viability after 72 hrs by MTT assay
Format: functional, cell-based
Settings: HL-60, 72 h

SMILES | IC50
O=C1C(Cl)=C(NCc2cn(CCCN3C(=O)c4ccccc4C3=O)nn2)C(=O)c2ccccc21 | > 10 µM
O=C1C(Br)=C(NCc2cn(CN3C(=O)c4ccccc4C3=O)nn2)C(=O)c2ccccc21 | > 10 µM
O=C1C(Br)=C(NCc2cn(CCN3C(=O)c4ccccc4C3=O)nn2)C(=O)c2ccccc21 | > 9 µM
O=C1C(Br)=C(NCc2cn(CCCN3C(=O)c4ccccc4C3=O)nn2)C(=O)c2ccccc21 | > 9 µM
O=C1C=C(NCc2cn(-c3cccc([N+](=O)[O-])c3)nn2)C(=O)c2ccccc21 | > 13 µM

Tested on: V79
Experiment: Cytotoxicity against chinese hamster V79 cells assessed as cell viability after 72 hrs by MTT assay
Format: cell-based
Settings: Cricetulus griseus, V79, 72 h

SMILES | IC50
O=C1C(Cl)=C(NCc2cn(CCCN3C(=O)c4ccccc4C3=O)nn2)C(=O)c2ccccc21 | > 10 µM
O=C1C(Br)=C(NCc2cn(CN3C(=O)c4ccccc4C3=O)nn2)C(=O)c2ccccc21 | > 10 µM
O=C1C(Br)=C(NCc2cn(CCN3C(=O)c4ccccc4C3=O)nn2)C(=O)c2ccccc21 | > 9 µM
O=C1C(Br)=C(NCc2cn(CCCN3C(=O)c4ccccc4C3=O)nn2)C(=O)c2ccccc21 | > 9 µM
O=C1C=C(NCc2cn(-c3cccc([N+](=O)[O-])c3)nn2)C(=O)c2ccccc21 | > 13 µM

Tested on: PC-3
Experiment: Cytotoxicity against human PC3 cells assessed as cell viability after 72 hrs by MTT assay
Format: functional, cell-based
Settings: PC-3, 72 h

SMILES | IC50
O=C1C(Cl)=C(NCc2cn(CCCN3C(=O)c4ccccc4C3=O)nn2)C(=O)c2ccccc21 | > 10 µM
O=C1C(Br)=C(NCc2cn(CN3C(=O)c4ccccc4C3=O)nn2)C(=O)c2ccccc21 | > 10 µM
O=C1C(Br)=C(NCc2cn(CCN3C(=O)c4ccccc4C3=O)nn2)C(=O)c2ccccc21 | > 9 µM
O=C1C(Br)=C(NCc2cn(CCCN3C(=O)c4ccccc4C3=O)nn2)C(=O)c2ccccc21 | > 9 µM
O=C1C=C(NCc2cn(-c3cccc([N+](=O)[O-])c3)nn2)C(=O)c2ccccc21 | > 13 µM

Tested on: MCF7
Experiment: Cytotoxicity against human MCF7 cells assessed as cell viability after 72 hrs by MTT assay
Format: functional, cell-based
Settings: MCF7, 72 h

SMILES | IC50
O=C1C(Cl)=C(NCc2cn(CCCN3C(=O)c4ccccc4C3=O)nn2)C(=O)c2ccccc21 | > 10 µM
O=C1C(Br)=C(NCc2cn(CN3C(=O)c4ccccc4C3=O)nn2)C(=O)c2ccccc21 | > 10 µM
O=C1C(Br)=C(NCc2cn(CCN3C(=O)c4ccccc4C3=O)nn2)C(=O)c2ccccc21 | > 9 µM
O=C1C(Br)=C(NCc2cn(CCCN3C(=O)c4ccccc4C3=O)nn2)C(=O)c2ccccc21 | > 9 µM
O=C1C=C(NCc2cn(-c3cccc([N+](=O)[O-])c3)nn2)C(=O)c2ccccc21 | > 13 µM

Tested on: SF-295
Experiment: Cytotoxicity against human SF295 cells assessed as cell viability after 72 hrs by MTT assay
Format: functional, cell-based
Settings: SF-295, 72 h

SMILES | IC50
O=C1C(Cl)=C(NCc2cn(CCCN3C(=O)c4ccccc4C3=O)nn2)C(=O)c2ccccc21 | > 10 µM
O=C1C(Br)=C(NCc2cn(CN3C(=O)c4ccccc4C3=O)nn2)C(=O)c2ccccc21 | > 10 µM
O=C1C(Br)=C(NCc2cn(CCN3C(=O)c4ccccc4C3=O)nn2)C(=O)c2ccccc21 | > 9 µM
O=C1C(Br)=C(NCc2cn(CCCN3C(=O)c4ccccc4C3=O)nn2)C(=O)c2ccccc21 | > 9 µM
O=C1C=C(NCc2cn(-c3cccc([N+](=O)[O-])c3)nn2)C(=O)c2ccccc21 | > 13 µM

Tested on: OVCAR-8
Experiment: Cytotoxicity against human OVCAR8 cells assessed as cell viability after 72 hrs by MTT assay
Format: functional, cell-based
Settings: OVCAR-8, 72 h

SMILES | IC50
O=C1C(Cl)=C(NCc2cn(CCCN3C(=O)c4ccccc4C3=O)nn2)C(=O)c2ccccc21 | > 10 µM
O=C1C(Br)=C(NCc2cn(CN3C(=O)c4ccccc4C3=O)nn2)C(=O)c2ccccc21 | > 10 µM
O=C1C(Br)=C(NCc2cn(CCN3C(=O)c4ccccc4C3=O)nn2)C(=O)c2ccccc21 | > 9 µM
O=C1C(Br)=C(NCc2cn(CCCN3C(=O)c4ccccc4C3=O)nn2)C(=O)c2ccccc21 | > 9 µM
O=C1C=C(NCc2cn(-c3cccc([N+](=O)[O-])c3)nn2)C(=O)c2ccccc21 | > 13 µM

Tested on: PBMC
Experiment: Cytotoxicity against human PBMC assessed as cell viability after 72 hrs by MTT assay
Format: cell-based
Settings: not given

SMILES | IC50
O=C1C(Cl)=C(NCc2cn(CCCN3C(=O)c4ccccc4C3=O)nn2)C(=O)c2ccccc21 | > 10 µM
O=C1C(Br)=C(NCc2cn(CN3C(=O)c4ccccc4C3=O)nn2)C(=O)c2ccccc21 | > 10 µM
O=C1C(Br)=C(NCc2cn(CCN3C(=O)c4ccccc4C3=O)nn2)C(=O)c2ccccc21 | > 9 µM
O=C1C(Br)=C(NCc2cn(CCCN3C(=O)c4ccccc4C3=O)nn2)C(=O)c2ccccc21 | > 9 µM
O=C1C=C(NCc2cn(-c3cccc([N+](=O)[O-])c3)nn2)C(=O)c2ccccc21 | > 13 µM

Tested on: HCT-116
Experiment: Cytotoxicity against human HCT116 cells assessed as cell viability after 72 hrs by MTT assay
Format: functional, cell-based
Settings: HCT-116, 72 h

SMILES | IC50
O=C1C(Cl)=C(NCc2cn(CCCN3C(=O)c4ccccc4C3=O)nn2)C(=O)c2ccccc21 | > 10 µM
O=C1C(Br)=C(NCc2cn(CN3C(=O)c4ccccc4C3=O)nn2)C(=O)c2ccccc21 | > 10 µM
O=C1C(Br)=C(NCc2cn(CCN3C(=O)c4ccccc4C3=O)nn2)C(=O)c2ccccc21 | > 9 µM
O=C1C(Br)=C(NCc2cn(CCCN3C(=O)c4ccccc4C3=O)nn2)C(=O)c2ccccc21 | > 9 µM
O=C1C=C(NCc2cn(-c3cccc([N+](=O)[O-])c3)nn2)C(=O)c2ccccc21 | > 13 µM

Tested on: not listed separately
Experiment: Cytotoxicity against human HCT8 cells assessed as cell viability after 72 hrs by MTT assay
Format: functional, cell-based
Settings: HCT-8, 72 h

SMILES | IC50
O=C1C(Cl)=C(NCc2cn(CCCN3C(=O)c4ccccc4C3=O)nn2)C(=O)c2ccccc21 | > 10 µM
O=C1C(Br)=C(NCc2cn(CN3C(=O)c4ccccc4C3=O)nn2)C(=O)c2ccccc21 | > 10 µM
O=C1C(Br)=C(NCc2cn(CCN3C(=O)c4ccccc4C3=O)nn2)C(=O)c2ccccc21 | > 9 µM
O=C1C(Br)=C(NCc2cn(CCCN3C(=O)c4ccccc4C3=O)nn2)C(=O)c2ccccc21 | > 9 µM
O=C1C=C(NCc2cn(-c3cccc([N+](=O)[O-])c3)nn2)C(=O)c2ccccc21 | > 13 µM

Tested on: L929
Experiment: Cytotoxicity against mouse L929 cells assessed as cell viability after 72 hrs by MTT assay
Format: ADME, cell-based
Settings: L929, 72 h

SMILES | IC50
O=C1C(Cl)=C(NCc2cn(CCCN3C(=O)c4ccccc4C3=O)nn2)C(=O)c2ccccc21 | > 10 µM
O=C1C(Br)=C(NCc2cn(CN3C(=O)c4ccccc4C3=O)nn2)C(=O)c2ccccc21 | > 10 µM
O=C1C(Br)=C(NCc2cn(CCN3C(=O)c4ccccc4C3=O)nn2)C(=O)c2ccccc21 | > 9 µM
O=C1C(Br)=C(NCc2cn(CCCN3C(=O)c4ccccc4C3=O)nn2)C(=O)c2ccccc21 | > 9 µM
O=C1C=C(NCc2cn(-c3cccc([N+](=O)[O-])c3)nn2)C(=O)c2ccccc21 | > 13 µM

Tested on: DU-145
Experiment: Cytotoxicity against human DU145 cells assessed as cell viability after 72 hrs by MTT assay
Format: functional, cell-based
Settings: DU-145, 72 h

SMILES | IC50
O=C1C(Cl)=C(NCc2cn(CCCN3C(=O)c4ccccc4C3=O)nn2)C(=O)c2ccccc21 | > 10 µM
O=C1C(Br)=C(NCc2cn(CN3C(=O)c4ccccc4C3=O)nn2)C(=O)c2ccccc21 | > 10 µM
O=C1C(Br)=C(NCc2cn(CCN3C(=O)c4ccccc4C3=O)nn2)C(=O)c2ccccc21 | > 9 µM
O=C1C(Br)=C(NCc2cn(CCCN3C(=O)c4ccccc4C3=O)nn2)C(=O)c2ccccc21 | > 9 µM
O=C1C=C(NCc2cn(-c3cccc([N+](=O)[O-])c3)nn2)C(=O)c2ccccc21 | > 13 µM
